Reference: US20220306617A1, “SUBSTITUTED 1,3-PHENYL HETEROARYL DERIVATIVES AND THEIR USE IN THE TREATMENT OF DISEASE” (NOVARTIS AG, priority 2019, published 2022)
Structures can show the parent of a compound that is named as a salt.

Target: T1, abc isoform of human TMEM16A channel expressed in CHO cells (Homo sapiens, UniProt Q5XXA6, DEL476-501)
T1 construct: expressed in transfected cells; host or cells: CHO cells, doxycycline-inducible expression under Blasticidin/Zeocin selection
T1 sequence (Q5XXA6 with tags, fused parts or gaps isoform Q5XXA6-5 DEL539-564): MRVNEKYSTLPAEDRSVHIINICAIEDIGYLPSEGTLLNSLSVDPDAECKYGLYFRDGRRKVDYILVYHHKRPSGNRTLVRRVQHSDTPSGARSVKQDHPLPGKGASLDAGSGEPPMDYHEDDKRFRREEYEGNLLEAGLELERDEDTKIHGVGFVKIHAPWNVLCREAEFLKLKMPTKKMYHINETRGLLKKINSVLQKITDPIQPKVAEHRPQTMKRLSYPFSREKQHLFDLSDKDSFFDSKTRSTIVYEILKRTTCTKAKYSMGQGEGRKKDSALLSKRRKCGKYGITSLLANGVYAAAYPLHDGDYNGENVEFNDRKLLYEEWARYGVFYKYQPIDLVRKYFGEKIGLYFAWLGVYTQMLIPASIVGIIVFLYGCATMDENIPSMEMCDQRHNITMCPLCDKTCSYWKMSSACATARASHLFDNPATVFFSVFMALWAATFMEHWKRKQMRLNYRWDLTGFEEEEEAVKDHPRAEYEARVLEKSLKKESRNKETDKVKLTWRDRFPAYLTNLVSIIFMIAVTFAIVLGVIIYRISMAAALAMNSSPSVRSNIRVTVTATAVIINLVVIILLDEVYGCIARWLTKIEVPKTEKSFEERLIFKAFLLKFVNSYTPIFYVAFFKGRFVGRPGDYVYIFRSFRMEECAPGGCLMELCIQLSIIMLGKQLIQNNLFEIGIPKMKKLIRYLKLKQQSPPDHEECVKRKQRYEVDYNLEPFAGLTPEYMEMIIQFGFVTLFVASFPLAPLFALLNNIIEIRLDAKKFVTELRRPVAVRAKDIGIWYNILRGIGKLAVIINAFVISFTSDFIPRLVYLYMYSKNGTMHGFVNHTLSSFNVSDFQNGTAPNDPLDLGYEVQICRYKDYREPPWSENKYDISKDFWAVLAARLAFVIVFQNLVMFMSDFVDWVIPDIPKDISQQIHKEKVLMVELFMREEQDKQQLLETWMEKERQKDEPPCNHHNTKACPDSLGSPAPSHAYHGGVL
Assay: Automated patch clamping (QPatch) assay to measure TMEM16A activity in whole-cell
Assay type: cell-based
Details: for EC50: CHO cells expressing human TMEM16A (abc), whole-cell automated patch clamp, Hill fit, read-out: TMEM16A QPATCH assay EC50 V3 EC50; for Emax: CHO, read-out: TMEM16A QPATCH assay EC50 V3 Assay Window (% TMEM16A max activation)
Outline: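 CHO cells with doxycycline-induced (1 μg/mL, 18-24 h) human TMEM16A abc isoform; QPatch whole-cell recording, hold −70 mV, step +70 mV 1500 ms, then −90 to +70 mV ramp. Compounds in 0.3% DMSO; EC50 by Hill fit; % max activation relative to vehicle baseline and reference potentiator maximum.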

[1] = maximum current at highest dose relative to reference potentiator at maximal concentration (upper limit) and vehicle (lower limit)

| EC50 | Emax [1] | TMEM16A QPATCH assay EC50 V3 Assay Window (% TMEM16A max activation) [1] | SMILES |
| --- | --- | --- | --- |
| 32 nM | 112% |  | CCOC(=O)[C@@H](NC(=O)c1cc(-c2cccc(-c3ncc(C(=O)N[C@H](C(=O)OCC)C(C)C)o3)c2)[nH]n1)C(C)C [Example 2.2, (S)-Ethyl 2-(2-(3-(3-(((S)-1-Ethoxy-3-Methyl-1-Oxobutan-2-Yl)Carbamoyl)-1 H-Pyrazol-5-Yl)Phenyl)Oxazole-5-Carboxamido)-3-Methylbutanoate] |
| 170 nM | 54% |  | C[C@H](NC(=O)c1cc(-c2cccc(-c3ncc(C(=O)N[C@H](C)C4CC4)o3)c2)[nH]n1)C1CC1 [Example 1.8, N-((R)-1-Cyclopropylethyl)-2-(3-(3-(((S)-1-Cyclopropylethyl)Carbamoyl)-1H-Pyrazol-5-Yl)Phenyl)Oxazole-5-Carboxamide] |
| 260 nM | 83% |  | COC(=O)[C@@H](CSC)NC(=O)c1cnc(-c2cccc(-c3cc(C(=O)N[C@@H](C)C4CC4)n[nH]3)c2)o1 [Example 1.25, (S)-Methyl 2-(2-(3-(3-(((S)-1-Cyclopropylethyl)Carbamoyl)-1H-Pyrazol-5-yl)Phenyl)Oxazole-5-Carboxamido)-3-(Methylthio)Propanoate] |
| 330 nM | 154% |  | CCC(CC)NC(=O)c1cnc(-c2cccc(-c3nc(C(=O)NC(CC)CC)n(CCNCc4ccccc4)n3)c2)o1 [Example 15.6, 2-(3-(1-(2-(Benzylamino)Ethyl)-5-(Pentan-3-Ylcarbamoyl)-1H-1,2,4-Triazol-3-Yl)Phenyl)-N-(Pentan-3-Yl)Oxazole-5-Carboxamide] |
| 70 nM | 70% |  | CCC(CC)NC(=O)c1cnc(-c2cccc(-c3cc(C(=O)NCC4(C)CC4)n[nH]3)c2)o1 [Example 3.13, 2-(3-(3-(((1-Methylcyclopropyl)Methyl)Carbamoyl)-1H-Pyrazol-5-Yl)Phenyl)-N-(Pentan-3-Yl)Oxazole-5-Carboxamide] |
| 40 nM | 76% |  | CCC(CC)NC(=O)c1cnc(-c2cccc(-c3cc(C(=O)N[C@@H](C)CC)n[nH]3)c2)o1 [Example 3.24, (S)-2-(3-(3-(Sec-Butylcarbamoyl)-1H-Pyrazol-5-Yl)Phenyl)-N-(Pentan-3-Yl)Oxazole-5-Carboxamide] |
| 160 nM | 150% |  | CCOC(=O)[C@H](CC(C)C)NC(=O)c1cc(-c2cccc(-c3ncc(C(=O)NC(CC)CC)o3)c2)[nH]n1 [Example 3.60, (S)-Ethyl 4-Methyl-2-(5-(3-(5-(Pentan-3-Ylcarbamoyl)Oxazol-2-Yl)Phenyl)-1H-Pyrazole-3-Carboxamido)Pentanoate Trifluoroacetate] |
| 270 nM | 80% |  | C[C@H](NC(=O)c1nnc(-c2cccc(-c3ncc(C(=O)N[C@H](C)C4CC4)o3)c2)[nH]1)C1CC1 [Example 12.1, N-((R)-1-Cyclopropylethyl)-2-(3-(5-(((S)-1-Cyclopropylethyl)Carbamoyl)-4H-1,2,4-Triazol-3-Yl)Phenyl)Oxazole-5-Carboxamide] |
| 800 nM | 80% |  | CCC(CC)NC(=O)c1cnc(-c2cccc(-c3cc(C(=O)N[C@H](CCSC)C(=O)OC)n[nH]3)c2)o1 [Example 3.46, (R)-Methyl 4-(Methylthio)-2-(5-(3-(5-(Pentan-3-Ylcarbamoyl)Oxazol-2-yl)Phenyl)-1H-Pyrazole-3-Carboxamido)Butanoate] |
| 130 nM | 177% |  | CCC(CC)NC(=O)c1cnc(-c2cccc(-c3nc(C(=O)NC(CC)CC)n(CCO)n3)c2)o1 [Example 16.0, 2-(3-(1-(2-Hydroxyethyl)-5-(Pentan-3-Ylcarbamoyl)-1H-1,2,4-Triazol-3-Yl)Phenyl)-N-(Pentan-3-Yl)Oxazole-5-Carboxamide] |
| 20 nM | 119% |  | O=C(NC(C1CC1)C1CC1)c1nnc(-c2cccc(-c3ncc(C(=O)NC(C4CC4)C4CC4)o3)c2)[nH]1 [Example 12.8, N-(Dicyclopropylmethyl)-2-(3-(5-((Dicyclopropylmethyl)Carbamoyl)-4H-1,2,4-Triazol-3-Yl)Phenyl)Oxazole-5-Carboxamide] |
| 960 nM | 70% |  | CCC(CC)NC(=O)c1cnc(-c2cccc(-c3cc(C(=O)N4CCC(C(=O)OC(C)(C)C)C4)n[nH]3)c2)o1 (stereo not drawn) [Example 3.62, Tert-Butyl 1-(5-(3-(5-(Pentan-3-Ylcarbamoyl)Oxazol-2-Yl)Phenyl)-1H-Pyrazole-3-Carbonyl)Pyrrolidine-3-Carboxylate Trifluoroacetate] |
| 590 nM | 91% |  | CCC(CC)NC(=O)c1cnc(-c2cccc(-c3cc(C(=O)N[C@@H](C)COC)n[nH]3)c2)o1 [Example 3.11, (S)-2-(3-(3-((1-Methoxypropan-2-Yl)Carbamoyl)-1H-Pyrazol-5-Yl)Phenyl)-N-(Pentan-3-Yl)Oxazole-5-Carboxamide] |
| 840 nM | 61% |  | CCC(CC)NC(=O)c1cnc(-c2cccc(-c3cc(C(=O)N4CCCCC4)n[nH]3)c2)o1 [Example 3.33, N-(Pentan-3-Yl)-2-(3-(3-(Piperidine-1-Carbonyl)-1H-Pyrazol-5-Yl)Phenyl)Oxazole-5-Carboxamide] |
| 20 nM |  | 124% | COC(=O)[C@@H](NC(=O)c1cnc(-c2cccc(-c3cc(C(=O)N[C@@H](C)C4CC4)n(CC(O)C(F)(F)F)n3)c2)o1)C(C)C (single isomer, unassigned) [8.1 (ii)] |
| 30 nM | 86% |  | CCOC(=O)[C@@H](NC(=O)c1cnc(-c2cccc(-c3cc(C(=O)NC(C4CC4)C(F)(F)F)[nH]n3)c2)o1)C(C)C (single isomer, unassigned) [Example 2.3 (i)] |
| 40 nM | 124% |  | CCC(CC)NC(=O)c1cnc(-c2cccc(-c3cc(C(=O)NCC4CCC4)n[nH]3)c2)o1 [Example 3.5, 2-(3-(3-((Cyclobutylmethyl)Carbamoyl)-1H-Pyrazol-5-Yl)Phenyl)-N-(Pentan-3-Yl)Oxazole-5-Carboxamide] |
| 40 nM | 90% |  | CCC(CC)NC(=O)c1cnc(-c2cccc(-c3cc(C(=O)N[C@@H](C)C4CC4)n[nH]3)c2)o1 [Example 3.25, (S)-2-(3-(3-((1-Cyclopropylethyl)Carbamoyl)-1H-Pyrazol-5-Yl)Phenyl)-N-(Pentan-3-Yl)Oxazole-5-Carboxamide] |
| 180 nM | 83% |  | CCC(CC)NC(=O)c1cc(-c2cccc(-c3ncc(C(=O)N[C@@H](C)C4CCCCC4)o3)c2)[nH]n1 [Example 1.24, (S)-N-(1-Cyclohexylethyl)-2-(3-(3-(Pentan-3-Ylcarbamoyl)-1H-Pyrazol-5-yl)Phenyl)Oxazole-5-Carboxamide] |
| 30 nM | 92% |  | C[C@H](NC(=O)c1nnc(-c2cccc(-c3ncc(C(=O)NC(C4CC4)C4CC4)o3)c2)[nH]1)C1CC1 [Example 12.5, (S)-2-(3-(5-((1-Cyclopropylethyl)Carbamoyl)-4H-1,2,4-Triazol-3-Yl)Phenyl)-N-(Dicyclopropylmethyl)Oxazole-5-Carboxamide] |
| 500 nM | 96% |  | CCC(CC)NC(=O)c1cnc(-c2cccc(-c3cc(C(=O)NCCOC(C)C)n[nH]3)c2)o1 [Example 3.9, 2-(3-(3-((2-Isopropoxyethyl)Carbamoyl)-1H-Pyrazol-5-Yl)Phenyl)-N-(Pentan-3-Yl)Oxazole-5-Carboxamide] |
| 190 nM | 74% |  | CCC(CC)NC(=O)c1cnc(-c2cccc(-c3cc(C(=O)Nc4cccc(OC(C)C)c4)n[nH]3)c2)o1 [Example 3.21, 2-(3-(3-((3-Isopropoxyphenyl)Carbamoyl)-1H-Pyrazol-5-Yl)Phenyl)-N-(Pentan-3-Yl)Oxazole-5-Carboxamide] |
| 610 nM | 84% |  | CCOC(=O)[C@H](NC(=O)c1cnc(-c2cccc(-c3cc(C(=O)NC(CC)CC)n[nH]3)c2)o1)c1ccccc1 [Example 1.28, (R)-Ethyl 2-(2-(3-(3-(Pentan-3-Ylcarbamoyl)-1 H-Pyrazol-5-yl)Phenyl)Oxazole-5-Carboxamido)-2-Phenylacetate] |
| 200 nM | 109% |  | CCC(CC)NC(=O)c1cnc(-c2cccc(-c3cc(C(=O)N[C@H](C)C(C)C)n[nH]3)c2)o1 [Example 3.37, (R)-2-(3-(3-((3-Methylbutan-2-Yl)Carbamoyl)-1H-Pyrazol-5-Yl)Phenyl)-N-(Pentan-3-Yl)Oxazole-5-Carboxamide] |
